Reference: US20220304978A1, “INHIBITING MESANGIAL CELL ACTIVATION” (Chinook Therapeutics, Inc., priority 2019, published 2022)

System: kidney tissue of g-ddY mice
Experiment: RNA-seq differential gene expression in kidney tissue of g-ddY mice
Assay type: in vivo, mouse
Experimental: RNA isolation and sequencing libraries were generated using standard protocols. Sequencing was performed using an Illumina NextSeq500 using manufacturer's instructions with a read length of 75 bp and a read depth of 30 million. Raw data was assembled to FASTQ files. Following QC analysis, high quality sequencing reads (e.g., reads with a Phred quality score >36) were aligned to the mouse reference genome (GRCm38-mm10) using the default parameters of the align algorithm and transcript count tables of each library was generated using the default parameters of the featureCounts algorithm of the RSubread package (Liao Y, Smyth GK, Shi W, 2019). High quality sequencing reads mapped to 27,129 genes. Following additional QC of low count filtering (i.e. transcripts <10 counts across all samples), 16,207 genes were identified and used for further analysis. The remaining sequencing read counts of the included 16,207 genes were normalized to library size, log-transformed, and were quantified as counts per million (CPM). Select RNA-seq counts were validated using qPCR. Sequencing read counts (CPM) were used for identification of differential gene expression between specified populations using the quasi-likelihood methodology of the edgeR package. […] MA plots were generated using edgeR. Heatmaps and other plots were generated using the gplots and ggplot2 package.

[1] = 10 mg/kg/day vs control, IL6 signaling
[2] = 10 mg/kg/day vs control, NF-kB signaling
[3] = 10 mg/kg/day vs control, PDGF signaling
[4] = 10 mg/kg/day vs control, cell proliferation signaling
[5] = 10 mg/kg/day vs control, inflammatory response signaling
[6] = 10 mg/kg/day vs control, mesangial cell signature
[7] = 20 mg/kg/day vs control, IL6 signaling
[8] = 20 mg/kg/day vs control, NF-kB signaling
[9] = 20 mg/kg/day vs control, PDGF signaling
[10] = 20 mg/kg/day vs control, cell proliferation signaling

CCCCN(CCCC)C(=O)CN1C[C@H](c2ccc3c(c2)OCO3)[C@@H](C(=O)O)[C@@H]1c1ccc(OC)cc1 [atrasentan, (2R,3R,4S)-4-(1,3-benzodioxol-5-yl)-1-[2-(dibutylamino)-2-oxoethyl]-2-(4-methoxyphenyl)pyrrolidine-3-carboxylic acid]
Cntfr logFC [1]: −0.8669
Csf1 logFC [1]: −0.8332
Il1b logFC [1]: −1.684
Il1r1 logFC [1]: −0.2988
Il2ra logFC [1]: −0.8599
Map3k8 logFC [1]: −0.3558
Ackr3 logFC [2]: 0.2851
Atf3 logFC [2]: −1.514
Btg1 logFC [2]: −0.3745
Btg2 logFC [2]: −0.424
Ccl20 logFC [2]: −1.273
Ccnd1 logFC [2]: 0.453
Cdkn1a logFC [2]: 0.5583
Csf1 logFC [2]: −0.8332
Cxcl2 logFC [2]: −1.19
Dnajb4 logFC [2]: −0.3683
Edn1 logFC [2]: −1.006
Efna1 logFC [2]: 0.6938
Ehd1 logFC [2]: 0.2563
F3 logFC [2]: −0.4963
Fosl2 logFC [2]: −0.8662
Id2 logFC [2]: 0.1663
Ifit2 logFC [2]: −0.471
Il1b logFC [2]: −1.684
Jag1 logFC [2]: −0.4199
Klf2 logFC [2]: −0.4894
Klf4 logFC [2]: −0.5493
Map3k8 logFC [2]: −0.3558
Nfat5 logFC [2]: −0.3118
Nfkb1 logFC [2]: −0.3424
Nfkbia logFC [2]: −0.5525
Nr4a2 logFC [2]: −1.3802
Nr4a3 logFC [2]: −1.143
Per1 logFC [2]: −0.4162
Pfkfb3 logFC [2]: −1.166
Pnrcl logFC [2]: 0.2635
Rel logFC [2]: −0.7218
Rhob logFC [2]: −0.533
Serpine1 logFC [2]: −0.7169
Snn logFC [2]: 0.3517
Spsb1 logFC [2]: −0.6157
Tnfaip8 logFC [2]: 0.273
Traf1 logFC [2]: −0.5182
Trib1 logFC [2]: −0.6481
Zbtb10 logFC [2]: −0.2335
Hras logFC [3]: 0.1887
Map3k1 logFC [3]: −0.3825
Nfkb1 logFC [3]: −0.3424
Nfkbia logFC [3]: −0.5525
Pdgfb logFC [3]: −0.3414
Pdgfra logFC [3]: −0.51
Pik3cg logFC [3]: −0.5882
Pik3r1 logFC [3]: −0.4253
Pla2g4a logFC [3]: −0.6999
Tiam1 logFC [3]: −0.7456
Arid4a logFC [4]: −0.2777
Atrx logFC [4]: −0.2463
Bcar1 logFC [4]: 0.3379
Ccdc88a logFC [4]: −0.5602
Ccnd1 logFC [4]: 0.453
Cep192 logFC [4]: −0.4211
Cntrl logFC [4]: −0.289
Dmd logFC [4]: −0.3335
Epb41l2 logFC [4]: −0.4376
Fgd6 logFC [4]: −0.2369
Flna logFC [4]: −0.4162
Itsn1 logFC [4]: −0.2276
Kmt5a logFC [4]: 0.2601
Meis1 logFC [4]: −0.2507
Myh9 logFC [4]: −0.2093
Myh10 logFC [4]: −0.3068
Myo1e logFC [4]: −0.2349
Nin logFC [4]: −0.3393
Ophn1 logFC [4]: −0.4999
Rapgef5 logFC [4]: −0.2732
Rhot2 logFC [4]: 0.4727
Slc7a1 logFC [4]: −0.396
Slc12a2 logFC [4]: −0.2507
Slc38a1 logFC [4]: −0.4971
Smc3 logFC [4]: −0.2304
Sorbs2 logFC [4]: −0.3958
Tiam1 logFC [4]: −0.7456
Tuba4a logFC [4]: 0.2738
Vcl logFC [4]: −0.2001
Ythdc1 logFC [4]: −0.1936
Btg2 logFC [5]: −0.424
Ccl20 logFC [5]: −1.273
Cdkn1a logFC [5]: 0.5583
Chst2 logFC [5]: −0.5212
Csf1 logFC [5]: −0.8332
Edn1 logFC [5]: −1.006
Eif2ak2 logFC [5]: −0.272
F3 logFC [5]: −0.4963
Gabbr1 logFC [5]: −0.02473
Hpn logFC [5]: 0.4007
Il1b logFC [5]: −1.684
Il1r1 logFC [5]: −0.2988
Ly6e logFC [5]: 0.1666
Nfkb1 logFC [5]: −0.3424
Nfkbia logFC [5]: −0.5525
Rnf144b logFC [5]: −0.7108
Ros1 logFC [5]: −2.078
Serpine1 logFC [5]: −0.7169
Slc4a4 logFC [5]: 0.5123
Slc7a1 logFC [5]: −0.396
Slc7a2 logFC [5]: −0.8315
Slc11a2 logFC [5]: 0.3192
Ahnak logFC [6]: −0.5756
Akap12 logFC [6]: −0.2687
Akt3 logFC [6]: −0.3863
Aldob logFC [6]: 0.4194
Ankrd12 logFC [6]: −0.2824
C7 logFC [6]: −0.7767
Cald1 logFC [6]: −0.3719
Cblb logFC [6]: −0.082
Ebf1 logFC [6]: −0.3301
Epb41l2 logFC [6]: −0.4375
Ets1 logFC [6]: −0.2198
Fchsd2 logFC [6]: −0.2564
Frmd4a logFC [6]: −0.2838
Gata3 logFC [6]: −0.4822
Gpx3 logFC [6]: 0.6802
Igfbp7 logFC [6]: 0.2052
Lama2 logFC [6]: −0.2955
Maml2 logFC [6]: −0.2318
Meis1 logFC [6]: −0.2507
Myh9 logFC [6]: −0.2094
Myo1e logFC [6]: −0.2349
Nbea logFC [6]: −0.2819
Nfkbia logFC [6]: −0.5525
Piezo2 logFC [6]: −0.4078
Postn logFC [6]: −1.385
Pparg logFC [6]: −0.6129
Ppp1r12a logFC [6]: −0.1995
Prkg1 logFC [6]: −0.2187
Psd3 logFC [6]: −0.3544
Ptprm logFC [6]: −0.2614
Rapgef5 logFC [6]: −0.2732
Raph1 logFC [6]: −0.2965
Rbms3 logFC [6]: −0.5749
Robo1 logFC [6]: −0.4803
Stard13 logFC [6]: −0.7224
Tacc1 logFC [6]: −0.2449
Tcf4 logFC [6]: −0.2176
Tjp1 logFC [6]: −0.2489
Tns3 logFC [6]: −0.2638
Unc5c logFC [6]: 0.5618
Utrn logFC [6]: −0.49
Cntfr logFC [7]: −0.8574
Csf1 logFC [7]: −1.089
Il1r1 logFC [7]: −0.8263
Il2ra logFC [7]: −0.959
Map3k8 logFC [7]: −0.8222
Ackr3 logFC [8]: 0.4917
Atf3 logFC [8]: −2.107
Btg1 logFC [8]: −0.5187
Btg2 logFC [8]: −0.6974
Ccn1 logFC [8]: −1.087
Ccnd1 logFC [8]: 0.644
Cdkn1a logFC [8]: 0.2546
Csf1 logFC [8]: −1.089
Cxcl2 logFC [8]: −2.5772
Dnajb4 logFC [8]: −0.3548
Edn1 logFC [8]: −1.328
Efna1 logFC [8]: 0.286
Ehd1 logFC [8]: 0.2715
F3 logFC [8]: −0.5235
Fosl2 logFC [8]: −1.122
Gem logFC [8]: −1.237
Id2 logFC [8]: 0.2228
Ifit2 logFC [8]: −0.6323
Jag1 logFC [8]: −0.3939
Klf2 logFC [8]: −0.4816
Klf4 logFC [8]: −0.904
Map3k8 logFC [8]: −0.8222
Nfat5 logFC [8]: −0.323
Nfkb1 logFC [8]: −0.616
Nfkbia logFC [8]: −0.7041
Nr4a1 logFC [8]: −1.621
Nr4a2 logFC [8]: −1.111
Nr4a3 logFC [8]: −1.113
Per1 logFC [8]: −0.1216
Pfkfb3 logFC [8]: −1.125
Pnrcl logFC [8]: 0.04156
Rel logFC [8]: −1.0782
Rhob logFC [8]: −0.5419
Serpine1 logFC [8]: −1.501
Snn logFC [8]: 0.4753
Spsb1 logFC [8]: −0.654
Tnfaip8 logFC [8]: 0.4
Traf1 logFC [8]: −1.485
Trib1 logFC [8]: −0.7668
Zbtb10 logFC [8]: −0.2586
Hras logFC [9]: 0.06802
Map3k1 logFC [9]: −0.7203
Nfkb1 logFC [9]: −0.616
Nfkbia logFC [9]: −0.7041
Pdgfb logFC [9]: −0.8375
Pdgfra logFC [9]: −0.658
Pik3cg logFC [9]: −1.096
Pik3r1 logFC [9]: −0.4284
Pla2g4a logFC [9]: −0.8381
Tiam1 logFC [9]: −0.9494
Arid4a logFC [10]: −0.196
Atrx logFC [10]: −0.2188
Bcar1 logFC [10]: 0.346
Ccdc88a logFC [10]: −0.6374
Ccnd1 logFC [10]: 0.644
Cep192 logFC [10]: −0.4173
Cntrl logFC [10]: −0.3963
Dmd logFC [10]: −0.3485
Epb41l2 logFC [10]: −0.6149
Fgd6 logFC [10]: −0.3419
Flna logFC [10]: −0.7842
Itsn1 logFC [10]: −0.2752
Kmt5a logFC [10]: 0.2873
Meis1 logFC [10]: −0.3593
Myh9 logFC [10]: −0.4543
Myh10 logFC [10]: −0.1801
Myo1e logFC [10]: −0.292
Nin logFC [10]: −0.4236
Ophn1 logFC [10]: −0.7587
